Test results published in PubChem BioAssay (NCI).
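1) Cells in 96-well plates. 2) Compound, 48 h, 5 concentrations. 3) Linear interpolation between surrounding doses. 4) Unreached endpoint = highest concentration. TGI marks complete inhibition of growth.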

How the values were obtained:
Test in all cases: NCI anticancer screen, dose series, 48 h
SK-MEL-5 melanoma = tested on: SK-MEL-5 melanoma
DU-145 prostate = tested on: DU-145 prostate
SF-295 CNS = tested on: SF-295 CNS
SK-MEL-2 melanoma = tested on: SK-MEL-2 melanoma
SF-268 CNS = tested on: SF-268 CNS
U251 CNS = tested on: U251 CNS
HS 578T breast = tested on: HS 578T breast
HOP-92 NSCLC = tested on: HOP-92 NSCLC
786-0 renal = tested on: 786-0 renal
UACC-257 melanoma = tested on: UACC-257 melanoma
TK-10 renal = tested on: TK-10 renal
HCT-116 colon = tested on: HCT-116 colon
MDA-N = tested on: MDA-N
LOX IMVI melanoma = tested on: LOX IMVI melanoma
OVCAR-8 ovarian = tested on: OVCAR-8 ovarian
HCT-15 colon = tested on: HCT-15 colon
ACHN renal = tested on: ACHN renal
KM12 colon = tested on: KM12 colon
SK-OV-3 ovarian = tested on: SK-OV-3 ovarian
HL-60(TB) leukemia = tested on: HL-60(TB) leukemia
SNB-19 CNS = tested on: SNB-19 CNS
SW-620 colon = tested on: SW-620 colon
UO-31 renal = tested on: UO-31 renal
M14 melanoma = tested on: M14 melanoma
NCI-H522 lung = tested on: NCI-H522 lung
IGROV1 ovarian = tested on: IGROV1 ovarian
OVCAR-4 ovarian = tested on: OVCAR-4 ovarian
MDA-MB-231 breast = tested on: MDA-MB-231 breast
UACC-62 melanoma = tested on: UACC-62 melanoma
NCI-H23 lung = tested on: NCI-H23 lung
MOLT-4 leukemia = tested on: MOLT-4 leukemia
MCF7 breast = tested on: MCF7 breast
SR leukemia = tested on: SR leukemia
NCI/ADR-RES ovarian = tested on: NCI/ADR-RES ovarian
OVCAR-3 ovarian = tested on: OVCAR-3 ovarian
A498 renal = tested on: A498 renal
NCI-H226 lung = tested on: NCI-H226 lung
COLO 205 colon = tested on: COLO 205 colon
MDA-MB-435 = tested on: MDA-MB-435
HT29 colon = tested on: HT29 colon
SK-MEL-28 melanoma = tested on: SK-MEL-28 melanoma
A549 NSCLC = tested on: A549 NSCLC
T-47D breast = tested on: T-47D breast
RPMI-8226 leukemia = tested on: RPMI-8226 leukemia
PC-3 prostate = tested on: PC-3 prostate
SN12C renal = tested on: SN12C renal
RXF 393 renal = tested on: RXF 393 renal
MALME-3M melanoma = tested on: MALME-3M melanoma
EKVX NSCLC = tested on: EKVX NSCLC
CAKI-1 renal = tested on: CAKI-1 renal
HOP-62 NSCLC = tested on: HOP-62 NSCLC
OVCAR-5 ovarian = tested on: OVCAR-5 ovarian
K-562 leukemia = tested on: K-562 leukemia
BT-549 breast = tested on: BT-549 breast
NCI-H460 lung = tested on: NCI-H460 lung
SF-539 CNS = tested on: SF-539 CNS
SNB-75 CNS = tested on: SNB-75 CNS
CCRF-CEM leukemia = tested on: CCRF-CEM leukemia

Measured: TGI

CCC1c2[nH]c3ccccc3c2C[C@H]2C(=O)NC(Cc3c[nH]c4ccccc34)C(=O)N12 (stereo not given in full)
> 100 µM: DU-145 prostate | SF-268 CNS | ACHN renal | SK-OV-3 ovarian | SNB-19 CNS | SW-620 colon | UO-31 renal | OVCAR-4 ovarian | MCF7 breast | A498 renal | SK-MEL-28 melanoma | A549 NSCLC | T-47D breast | K-562 leukemia
55.2 µM: MDA-N
58.5 µM: OVCAR-5 ovarian
62.2 µM: HT29 colon
49.3 µM: LOX IMVI melanoma
41.1 µM: MDA-MB-435
32.6 µM: UACC-62 melanoma
49.4 µM: HS 578T breast
42.2 µM: UACC-257 melanoma
34.7 µM: U251 CNS
94 µM: OVCAR-8 ovarian
43.4 µM: KM12 colon
76.6 µM: NCI/ADR-RES ovarian
82.1 µM: NCI-H226 lung
36.3 µM: MALME-3M melanoma
50.6 µM: HOP-62 NSCLC
37.8 µM: OVCAR-3 ovarian
52.6 µM: SN12C renal
49.6 µM: SR leukemia
78.2 µM: HCT-15 colon
63.2 µM: NCI-H23 lung
35 µM: SF-295 CNS
67.3 µM: CAKI-1 renal
88.3 µM: EKVX NSCLC
74 µM: HOP-92 NSCLC
31.8 µM: SK-MEL-5 melanoma
53.1 µM: PC-3 prostate
55.8 µM: RPMI-8226 leukemia
37.1 µM: RXF 393 renal
55 µM: NCI-H522 lung
38.1 µM: MDA-MB-231 breast
65.2 µM: IGROV1 ovarian
35.1 µM: HCT-116 colon
36.2 µM: COLO 205 colon
46.4 µM: HL-60(TB) leukemia
49.2 µM: M14 melanoma
38.6 µM: SK-MEL-2 melanoma
80.4 µM: TK-10 renal
47.9 µM: MOLT-4 leukemia
52.9 µM: BT-549 breast
55.1 µM: 786-0 renal

CC(C)NC1(C(N)=O)CCN(Cc2ccccc2)CC1
> 100 µM: SK-MEL-5 melanoma | NCI-H460 lung | DU-145 prostate | SF-295 CNS | SK-MEL-2 melanoma | SF-268 CNS | U251 CNS | HS 578T breast | HOP-92 NSCLC | 786-0 renal | UACC-257 melanoma | TK-10 renal | HCT-116 colon | MDA-N | LOX IMVI melanoma | OVCAR-8 ovarian | HCT-15 colon | ACHN renal | KM12 colon | SK-OV-3 ovarian | HL-60(TB) leukemia | SNB-19 CNS | SW-620 colon | UO-31 renal | M14 melanoma | NCI-H522 lung | IGROV1 ovarian | OVCAR-4 ovarian | MDA-MB-231 breast | UACC-62 melanoma | NCI-H23 lung | MOLT-4 leukemia | MCF7 breast | SR leukemia | NCI/ADR-RES ovarian | OVCAR-3 ovarian | A498 renal | NCI-H226 lung | COLO 205 colon | SF-539 CNS | MDA-MB-435 | HT29 colon | SK-MEL-28 melanoma | A549 NSCLC | T-47D breast | RPMI-8226 leukemia | PC-3 prostate | SN12C renal | SNB-75 CNS | RXF 393 renal | MALME-3M melanoma | EKVX NSCLC | CAKI-1 renal | HOP-62 NSCLC | OVCAR-5 ovarian | K-562 leukemia | BT-549 breast

COc1ccc(N)c(C(=O)CCNC(C)=O)c1
> 100 µM: SK-MEL-5 melanoma | NCI-H460 lung | DU-145 prostate | SF-295 CNS | SK-MEL-2 melanoma | SF-268 CNS | U251 CNS | HS 578T breast | HOP-92 NSCLC | 786-0 renal | UACC-257 melanoma | TK-10 renal | HCT-116 colon | MDA-N | LOX IMVI melanoma | OVCAR-8 ovarian | HCT-15 colon | ACHN renal | KM12 colon | SK-OV-3 ovarian | HL-60(TB) leukemia | SNB-19 CNS | SW-620 colon | UO-31 renal | M14 melanoma | NCI-H522 lung | IGROV1 ovarian | OVCAR-4 ovarian | MDA-MB-231 breast | UACC-62 melanoma | NCI-H23 lung | MOLT-4 leukemia | MCF7 breast | SR leukemia | NCI/ADR-RES ovarian | OVCAR-3 ovarian | A498 renal | NCI-H226 lung | COLO 205 colon | SF-539 CNS | MDA-MB-435 | HT29 colon | A549 NSCLC | T-47D breast | RPMI-8226 leukemia | PC-3 prostate | SN12C renal | SNB-75 CNS | RXF 393 renal | CCRF-CEM leukemia | EKVX NSCLC | CAKI-1 renal | OVCAR-5 ovarian | BT-549 breast
